Source: patent US20250338846A1, “COMPOSITIONS HAVING PESTICIDAL UTILITY AND PROCESSES RELATED THERETO” (CORTEVA AGRISCIENCE, LLC, priority 2022, published 2025)

Columns and labels:
Assay type in all cases: in vivo
[1] = system: Western Flower Thrips (Frankliniella occidentalis, FRANOC); assay: Bioassay 3: Western Flower Thrips, cotton leaf disc dip, live WFT counted 3 days after treatment; details: Frankliniella occidentalis, foliar, 72 h; for pest or weed control at 0.005 % strength: AI alone 0.005 % w/v
Description: Stock solutions of Formula One and various active ingredients were prepared initially at a concentration of 8 mg/ml for Formula One and 1 mg/mL for the active ingredients, respectively, using acetone as a diluent. Stock solutions were prepared with Formula One as well as for each of the active ingredients individually. Test solutions were prepared from the stock solutions. Test solutions were prepared containing Formula One, the individual active ingredients, and mixtures of Formula One with each of the active ingredients. The test solution for Formula One was prepared by adding 500 μL of the stock solution to a 25 mL glass vial, then adding 500 μL of acetone, followed by the addition of 9 mL water with 0.025% Tween®) 20 to create a 0.04% (w/v) solution. The test solutions of the individual active ingredients were prepared by adding 500 μL of stock solution to a 25 mL glass vial, then adding 500 μL of acetone, followed by the addition of 9 mL water with 0.025% Tween®) 20 to create a 0.005% (w/v) solution. The test solutions containing mixtures of Formula One and the individual active ingredients were prepared by adding 500 μL of the active ingredient stock solution to a 25 mL glass vial, followed by 500 μL of the Formula One stock solution, then by the addition of 9 mL water with 0.025% Tween®) 20 to create a test solution containing 0.04% (w/v) Formula One and 0.005% (w/v) of the active ingredient. Each test solution was serially diluted to create desired doses of test solutions (0.005% (w/v), 0.00125% (w/v), 0.0003125% (w/v), 0.000078% (w/v), and 0.0000195% (w/v)). In test solutions containing mixtures of Formula One and the active ingredients, the active ingredients were diluted as described above, but the Concentration of Formula One was held constant (0.04% (w/v)).
The test solutions were tested against WFT using the following procedure: Leaf discs (2.7 cm in diameter) were cut from the true leaves of cotton plants. Leaf discs were dipped into the test solutions and shaken to ensure complete coverage of the leaf disc and then placed in Millipore®) PetriSlides containing a filter paper disc. Treated leaf discs were air dried for approximately 1 hour. Each leaf disc was infested with 5 WFT (9-10-day old nymphs) by placement on each leaf disc, and the PetriSlides were capped to prevent escape. Each treatment was replicated three times and the test treatments were held at approximately 26° C. and ambient relative humidity (RH) prior to grading. Reference discs (solvent check) were treated with the diluent only. Evaluation was conducted by counting the number of live WFT under magnification 3 days after treatment. Percent control was measured using Abbott's correction formula (W. S. Abbott, J. Econ. Entomol. 18 (1925), pp. 265-267) as follows:
where X=No. of live nymphs on solvent check leaf discs and Y=No. of live nymphs on treated leaf discs. In Table B3 the “Expected % Control” was calculated using the method described in Colby S. R., Weeds, 1967, 15, 20-22. Bioassay 4: Western Tarnished Plant Bug (Lygus hesperus, LYGUHE) (“WTPB”).

[2] = system: Neotropical Brown Stink Bug (Euschistus heros, EUSCHE); assay: whole plant or invertebrate; details: Euschistus heros, 72 h, read-out: Average % Control AI
Description: X=No. of live nymphs on solvent check and Y=No. of live nymphs on treated bean segments. In Table B4 the “Expected % Control” was calculated using the method described in Colby S. R., Weeds, 1967, 15, 20-22. Bioassay 5: Neotropical Brown Stink Bug (Euschistus heros, EUSCHE) (“BSB”).
Stock solutions were prepared with Formula One as well as for each of the active ingredients individually. Test solutions were prepared from the stock solutions. Test solutions were prepared containing Formula One, the individual active ingredients, and mixtures of Formula One with each of the active ingredients. The test solution for Formula One was prepared by adding 500 μL of the stock solution to a 25 mL glass vial, then adding 500 μL of acetone, followed by the addition of 9 mL water with 0.025% Tween®) 20 to create a 0.04% (w/v) solution. The individual active ingredients were prepared by adding 500 μL of stock solution to a 25 mL glass vial, then adding 500 μL of acetone, followed by the addition of 9 mL water with 0.025% Tween®) 20 to create a 0.005% (w/v) solution. The test solutions containing mixtures of Formula One and the individual active ingredients were prepared by adding 500 μL of the active ingredient stock solution to a 25 mL glass vial, followed by 500 μL of the Formula One stock solution, then by the addition of 9 mL water with 0.025% Tween®) 20 to create a test solution containing 0.04% (w/v) Formula One and 0.005% (w/v) of the active ingredient. Each test solution was serially diluted to create desired doses of test solutions (0.01% (w/v), 0.0025% (w/v), 0.000625% (w/v), 0.000156% (w/v), and 0.000039% (w/v)). In test solutions containing mixtures of Formula One and the active ingredients, the active ingredients were diluted as described above, but the Concentration of Formula One was held constant (0.04% (w/v)).
The test solutions that were tested against BSB were similar to those described above for WTPB. Fresh green beans were cut into segments approximately 1.5 inches long. Four bean segments were added to each test solution and soaked for approximately 15 minutes. After soaking, a single bean fragment was removed and placed into a single well of a 32-well rearing tray (Frontier Agricultural Sciences™), on top of a round filter paper disc. A reference treatment (solvent check) was treated with the diluent only. Each treatment was replicated four times and the test treatments were held at approximately 26° C. and ambient relative humidity (RH) prior to grading. Bean segments were allowed to air dry for ˜30 minutes. Three BSB nymphs were added to and contained in each well with a clear perforated adhesive lid. The total number of living BSB nymphs was recorded 3 days after application. Scoring was based off the total number of living nymphs out of all four replicates. Percent control was measured using Abbott's correction formula (W. S. Abbott, J. Econ. Entomol. 18 (1925), pp. 265-267) as follows:
where X=No. of live nymphs on solvent check and Y=No. of live nymphs on treated bean segments. In Table B5 the “Expected % Control” was calculated using the method described in Colby S. R., Weeds, 1967, 15, 20-22. Bioassay 6: Beet Armyworm (Spodoptera exigua, LAPHEG) (BAW), and Diamondback Moth (Plutella xylostella, PLUTMA) (DBM).

[3] = system: Sweet Potato Whitefly (Bemisia tabaci, BEMITA); assay: Bioassay 2: Sweet Potato Whitefly, spray on cotton seedlings at crawler emergence, nymphs counted 7-9 days after treatment; details: AI alone 0.1 (10-5) % w/v
Description: Stock solutions were prepared with Formula One as well as for each of the active ingredients individually. Test solutions were prepared from the stock solutions. Test solutions were prepared containing Formula One, the individual active ingredients, and mixtures of Formula One with each of the active ingredients. The test solutions for Formula One and the individual active ingredients were prepared by adding 500 μL of stock solution to a 25 mL glass vial, then adding 500 μL of acetone, followed by the addition of 9 mL water with 0.025% Tween®) 20 to create a 0.001% (w/v) solution. The test solutions containing mixtures of Formula One and the individual active ingredients were prepared by adding 500 μL of the active ingredient stock solution to a 25 mL glass vial, followed by 500 μL of the Formula One stock solution, then by the addition of 9 mL water with 0.025% Tween®) 20 to create a test solution containing 0.001% (w/v) Formula One and 0.001% (w/v) of the active ingredient. Each test solution was serially diluted to create desired doses of test solutions (0.001% (w/v), 0.0001% (w/v), 0.00001% (w/v), 0.000001% (w/v), 0.0000001% (w/v), and 0.00000001% (w/v)).
The test solutions were tested against SPW using the following procedure: Cotton seedlings grown in 3-inch pots, pruned so that only one true leaf remained, were used as test substrate. Adult B. tabaci were allowed to colonize the cotton plants and lay eggs for 24 hours after which all adults were removed from the plants using compressed air. Plants were monitored for egg development and, when crawler emergence was underway (>25% emergence based on visual examination using a microscope), the plants were sprayed using the test solutions and methods described above for green peach aphids (GPA). Treated plants were held in a holding room at approximately 25° C. and ambient relative humidity (RH) prior to grading. Evaluation was conducted by counting the number of developed 2-3 instar nymphs per plant under a microscope 7-9 days after treatment. Percent control was measured using Abbott's correction formula (W. S. Abbott, J. Econ. Entomol. 18 (1925), pp. 265-267) as follows:
where X=No. of live nymphs on solvent check plants and Y=No. of live nymphs on treated plants. In Table B2 the “Expected % Control” was calculated using the method described in Colby S. R., Weeds, 1967, 15, 20-22. Bioassay 3: Western Flower Thrips (Frankliniella occidentalis, FRANOC) (“WFT”).

[4] = system: Green Peach Aphid (Myzus persicae, MYZUPE); assay: Bioassay 1: Green Peach Aphid, foliar spray on infested cabbage seedlings, live aphids counted three days after treatment
Description: Bioassay 1: Green Peach Aphid (Myzus persicae, MYZUPE) (“GPA”).
The stock solutions were prepared with Formula One as well as for each of the active ingredients individually. Test solutions were prepared from the stock solutions. Test solutions were prepared containing Formula One, the individual active ingredients, and mixtures of Formula One with each of the active ingredients. The test solutions for Formula One and the individual active ingredients were prepared by adding 750 microliters (μL) of stock solution to a 25 mL glass vial, then adding 750 μL of 1:1 acetone: methanol solvent, followed by the addition of 13.5 ml water with 0.025% Tween®) 20 to create a 0.0005% (weight/volume (w/v)) solution. The test solutions containing mixtures of Formula One and the individual active ingredients were prepared by adding 750 μL of the active ingredient stock solution to a 25 mL glass vial, followed by 750 μL of the Formula One stock solution, then by the addition of 13.5 mL water with 0.025% Tween®) 20 to create a test solution containing 0.0005% (w/v) Formula One and 0.0005% (w/v) of the active ingredient. Each test solution was serially diluted to create desired doses of test solutions (0.0005% (w/v), 0.000125% (w/v), 0.00003125% (w/v), 0.0000078% (w/v), 0.00000195% (w/v), and 0.0000005% (w/v)).
The test solutions were tested against GPA using the following procedure: Cabbage seedlings, grown in 3-inch pots with 2-3 small (3-5 centimeter (cm)) true leaves, were used as test substrate. The seedlings were infested with 20-50 GPA (wingless adult and nymph stages) one day prior to chemical application. Four pots with individual seedlings were used for each treatment. A hand-held aspirator-type sprayer was used for spraying a solution to both sides of […] leaves until runoff. Reference plants (solvent check) were sprayed with the diluent only (0.025% Tween®) 20 and 10% acetone:methanol (1:1) in water). Treated plants were held in a holding room for three days at approximately 25° C. and ambient relative humidity (RH about 20% to about 45%) prior to grading. Evaluation was conducted by counting the number of live aphids per plant under a microscope three days after treatment. Percent control was measured using Abbott's correction formula (W. S. Abbott, J. Econ. Entomol. 18 (1925), pp. 265-267) as follows:
where X=No. of live aphids on solvent check plants and Y=No. of live aphids on treated plants. In Table B1 the “Expected % Control” was calculated using the method described in Colby S. R., Weeds, 1967, 15, 20-22. Bioassay 2: Sweet Potato Whitefly (Bemisia tabaci, BEMITA) (“SPW”).

CNC(=O)c1cc(Cl)cc(C)c1NC(=O)c1cc(Br)nn1-c1ncccc1Cl [Chlorantraniliprole]
pest or weed control at 0.005 % strength [1]: 7%

CCOCn1c(-c2ccc(Cl)cc2)c(C#N)c(Br)c1C(F)(F)F [Chlorfenapyr]
pest or weed control at 0.005 % strength [1]: 57%
pest or weed control at 0.0025 % strength ([2]; AI alone 0.0025 % w/v): 8%

CNC(=O)c1cc(C#N)cc(C)c1NC(=O)c1cc(Br)nn1-c1ncccc1Cl [Cyantraniliprole]
Average % Control AI [3]: 0%

CN/C(=N/CC1CCOC1)N[N+](=O)[O-] (stereo not shown) [Dinotefuran]
pest or weed control at 0.000156 % strength [2]: 17%

COc1cccc(C(=O)NN(C(=O)c2cc(C)cc(C)c2)C(C)(C)C)c1C [Methoxyfenozide]
Average % Control AI ([4]; AI alone 0.195 (10^-5) % w/v): 5%

CC(COc1ccc(Oc2ccccc2)cc1)Oc1ccccn1 (stereo not shown) [Pyriproxyfen]
Average % Control AI [3]: 8%
pest or weed control at 0.00125 % strength ([1]; AI alone 0.00125 % w/v): 17%

CCOC(=O)OC1=C(c2cc(C)ccc2C)C(=O)N[C@]12CC[C@@H](OC)CC2 [Spirotetramat]
Average % Control AI ([4]; AI alone 0.05 (10^-5) % w/v): 15%
pest or weed control at 7.8e-05 % strength ([1]; AI alone 0.000078 % w/v, read-out: Average % Control AI): 7%
